One molecule from US7214794B2, “Ceramide analogs, process for their preparation and their use as antitumor agents” (Bracco S.p.A., priority 1999, dated 2007) can be followed below.

The experiment has as its system human leukemia cell line CCRF/CEM. The experiment in a line: Cytotoxicity test (growth inhibition of CCRF/CEM cells). It is filed as cell-based. The settings on record: 72 hours exposure, cell count, non-linear regression, read-out: IC50 (concentration capable of inhibiting 50% of cell growth). As for the experimental part: The cytotoxicity of the compounds synthesized 1–28 was assessed using a human leukemia cell line called CCRF/CEM. The CCRF/CEM cells were cultured in a culture medium containing RPMI 1640 (90%), bovine fetal sera (10%) and interleukin-2 (100 U/ml). The cytotoxicity assay was performed on […] CCRF/CEM cells seeded in 35 mm wells in 2 ml of culture medium. The cells were treated with the compounds under consideration for 72 hours and at the end of the period of exposure their number was counted and compared with that of control cells treated with C2-ceramide in order to establish the percentage of growth inhibition. The concentration capable of inhibiting 50% of cell growth was calculated by non-linear regression of the experimental data as described in M. Macchia, N. Jannitti, G. B. Gervasi, R. Danesi, J Med Chem, (1996) 39 (7): 1352–1356.

Take `CCCCCCCCCCCCC/C=C/[C@@H](O)[C@H](CO)NC(C)=O` [controls, C2-ceramide]: the IC50 turned out to be 31.6 µM.
